Test results reported in patent publication US20230041996A1, “CALCIUM-SENSING RECEPTOR AGONIST COMPOUND AND APPLICATION THEREOF” (BEIJING TUO JIE BIOPHARMACEUTICAL CO. LTD., priority 2019, published 2023).
pEC50: −log10 of the molar value. Square brackets hold non-standard residues; d marks the D form. Peptide text beside a SMILES is read from it. * marks the point of attachment. dPhe(4-Me) = Cc1ccc(C[C@@H](N)C(=O)O)cc1; Cys(free,S-linked) = N[C@@H](CS*)C(=O)O; d(hLeu) = CC(C)CC[C@@H](N)C(=O)O; dChg = N[C@@H](C(=O)O)C1CCCCC1; dTle = CC(C)(C)[C@@H](N)C(=O)O

Key:
[1] = molecular target: T1, human calcium-sensing receptor (CaSR) (Homo sapiens, UniProt P41180); test: Agonist activity on human calcium-sensing receptor (IP-One HTRF in stably transfected HEK293/CaSR cells); format: cell-based; details: HEK293/CaSR cells, IP-One production, 60 min at 37° C., CaCl2 1.2 mM; read-out: EC50 for calcium-sensing receptor
T1 construct: host or cells: HEK293
T1 sequence (P41180 20-1078): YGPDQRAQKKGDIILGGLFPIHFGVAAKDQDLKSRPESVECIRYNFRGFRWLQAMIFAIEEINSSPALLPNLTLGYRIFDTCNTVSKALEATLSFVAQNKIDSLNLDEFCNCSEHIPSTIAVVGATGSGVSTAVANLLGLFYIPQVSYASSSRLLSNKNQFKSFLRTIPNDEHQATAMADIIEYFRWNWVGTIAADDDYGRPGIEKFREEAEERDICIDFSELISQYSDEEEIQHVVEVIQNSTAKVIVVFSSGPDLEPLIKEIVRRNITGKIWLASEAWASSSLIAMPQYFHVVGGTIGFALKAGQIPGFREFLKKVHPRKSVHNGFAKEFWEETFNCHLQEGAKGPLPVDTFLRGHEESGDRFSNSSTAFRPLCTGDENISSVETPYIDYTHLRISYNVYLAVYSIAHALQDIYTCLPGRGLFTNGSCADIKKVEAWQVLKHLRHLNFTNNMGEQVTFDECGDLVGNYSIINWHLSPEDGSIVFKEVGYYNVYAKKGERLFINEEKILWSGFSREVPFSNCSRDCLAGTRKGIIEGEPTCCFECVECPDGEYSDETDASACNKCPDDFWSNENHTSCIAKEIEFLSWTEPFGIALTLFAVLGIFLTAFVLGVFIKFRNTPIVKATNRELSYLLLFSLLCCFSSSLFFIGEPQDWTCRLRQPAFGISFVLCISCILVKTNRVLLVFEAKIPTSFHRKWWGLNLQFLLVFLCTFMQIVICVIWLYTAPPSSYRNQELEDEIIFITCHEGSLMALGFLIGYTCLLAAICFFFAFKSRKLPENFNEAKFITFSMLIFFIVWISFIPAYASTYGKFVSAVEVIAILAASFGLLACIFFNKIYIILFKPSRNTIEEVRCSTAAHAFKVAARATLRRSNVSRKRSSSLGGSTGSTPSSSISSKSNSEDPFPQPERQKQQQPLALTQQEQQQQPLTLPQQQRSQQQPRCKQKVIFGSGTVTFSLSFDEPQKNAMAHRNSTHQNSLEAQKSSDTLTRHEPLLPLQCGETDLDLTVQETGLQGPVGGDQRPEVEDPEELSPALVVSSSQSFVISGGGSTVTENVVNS
Protocol: 3.1.1 Objective: The test example is intended to measure the agonist activity of compounds 1-38 on the human calcium-sensing receptor (CaSR).
Stably transfected HEK293/CaSR cells (source: Pharmaron) were cultured in a complete medium (composition: DMEM, high glucose+10% FBS+2 mM GlutaMAX+1× Penicillin-Streptomycin+200 μg/mL Hygromycin B) and incubated at 37° C./5% CO2 till 70%-90% cell confluence. The cells were digested with TrypLE, inoculated into 384-well cell culture plates, and cultured overnight at 37° C./5% CO2. After buffer exchange, stimulation buffer (HEPES 10 mM, MgCl2 0.5 mM, KCl 4.2 mM, NaCl 146 mM, glucose 5.5 mM, LiCl 50 mM, CaCl2 1.2 mM) and various concentrations of the test example compounds were added and incubated at 37° C. for 60 min. Production of IP-One in cells was detected according to the procedures in the Cisbio IP-One Tb kit instructions. The EC50 values of various test example compounds in influencing human calcium-sensing receptor was calculated by software after the raw data of the example compounds were collected, so as to evaluate the agonist activity of the example compounds on human calcium-sensing receptor.
HTRF signal was read by an EnVision detector with an excitation wavelength of 320 nm and emission wavelengths of 620 nm and 665 nm. The signal ratio (665 nm/620 nm×10,000) was calculated and fitted non-linearly to the sample concentration in GraphPad Prism 6 using a four-parameter equation to give EC50 values of the test example compounds 1-38.

[2] = system: rat peritoneal mast cells; test: In vitro histamine release in rat peritoneal mast cells (histamine ELISA); format: cell-based; details: for Relative fold of histamine release in vitro: test compound final concentration 10 μM, 15 min at 37° C., relative to PBS buffer (1.00)
Protocol: To evaluate the in vitro histamine release levels induced by some of the test example compounds, rat peritoneal mast cells were collected by lavaging rat peritoneum with a lavage buffer (cold HBSS+25 mM HEPES containing heparin 5 U/mL, pH 7.4). After collection, the cells were centrifuged, and the lavage buffer was discarded. The cells were resuspended and washed twice with a stimulation buffer (HBSS+25 mM HEPES+1 mM CaCl2), pH 7.4). The cells were plated at a density of 10^5 cell/well (200 μL/well) and incubated at 37° C. for 15 min with positive control compound 48/80 (final concentration: 4 μg/mL), test example compounds (final concentration: 10 μM) or vehicle control. The cells were centrifuged, and cell supernatant was collected and tested for histamine concentration according to LDN Histamine ELISA kit (BAE-1000) instructions.

human red blood cells = test: Hemolytic effect on human red blood cells in vitro (absorbance at 540 nm); format: cell-based; details: 37° C., 1 h, FIG. 1
Protocol: To evaluate the hemolytic effect of the compounds disclosed herein on red blood cells in vitro, human whole blood (100 μL) was taken and mixed with a phosphate buffer. The mixture was centrifuged at 4° C. for 10 min and the supernatant was discarded. The red blood cells were resuspended in PBS buffer (900 μL) and centrifuged at 4° C. for 10 min with the supernatant discarded, and the procedures above were repeated once. The test example compounds were dissolved in 1×PBS buffer to a final concentration of 100 μg/mL. The red blood cells were resuspended in solutions of various test example compounds, an octylphenoxy poly(ethyleneoxy)ethanol-100 solution or PBS buffer, and incubated at 37° C. for 1 h. After incubation, the cells were centrifuged at 4° C. for 10 min and the supernatant (100 μL) was pipetted and transferred to a 96-well plate. The absorbance at 540 nm was detected for evaluating the hemolytic effect of the test example compounds on red blood cells in vitro.

5/6 nephrectomized rats = test: In vivo efficacy in 5/6 nephrectomized rat model after continuous administration (plasma parathyroid hormone, serum calcium)
Excerpt: 3.5.1 Objective: to evaluate the efficacy of some of the compounds disclosed herein in reducing plasma parathyroid hormone level and serum calcium level after continuous administration in a 5/6 nephrectomized rat model.
The rats were adapted. After anesthesia, ⅔ of the left kidney was surgically resected, and after 1 week of recovery, the right kidney was resected to establish the 5/6 nephrectomized rat model. After the second resection, the animals were normally fed for 2 weeks, tested for creatinine (CREA) and plasma parathyroid hormone level, and randomized as per the parathyroid hormone level into 4 groups of 10, including normal saline group, compound 17—low dose group, compound 17—high dose group and etelcalcetide group. After randomization, the normal saline group, compound 17—low dose group, compound 17—high dose group and etelcalcetide group were respectively administered with 1 dose of normal saline, 1 mg/kg of compound 17, 2 mg/kg of compound 17 and 1 mg/kg of etelcalcetide through the tail vein daily for 28 days. During the treatment period, parameters such as animal weight, plasma parathyroid hormone level and serum calcium were detected. The first day of treatment was taken as day 1.

Compound | pEC50 [1] | Relative fold of histamine release in vitro [2] | hemolytic effect on red blood cells (human red blood cells; 100 μg/mL in PBS) | histamine release levels in rat peritoneal mast cells in vitro relative to etelcalcetide ([2]; 10 μM, comparison with etelcalcetide) | serum calcium reduction (5/6 nephrectomized rats; after administration on days 1, 14 and 28) | extent of serum calcium reduction with the period of treatment (5/6 nephrectomized rats; minimum of serum calcium on days 14 and 28 compared to day 1) | hemolytic effect on red blood cells (human red blood cells; positive control solution)
CC(=O)N[C@H](CSSC[C@H](N)C(=O)O)C(=O)N[C@H](CCCNC(=N)N)C(=O)N[C@H](CCCNC(=N)N)C(=O)N[C@H](Cc1ccc(C)cc1)C(=O)N[C@H](CCCNC(=N)N)C(=O)N[C@H](C)C(=O)N[C@H](CCCNC(=N)N)C(N)=O [Compound 12, Ac-c(C)-r-r-[D-Phe(4-CH3)]-r-a-r-NH2] (Ac-[dC](Cys(free,S-linked))[dR][dR][dPhe(4-Me)][dR][dA][dR]-NH2) | 5.89 | 2.81 | no significant hemolytic effect |  |  |  | 
CC(=O)N[C@H](CSSC[C@H](N)C(=O)O)C(=O)N[C@H](CCCNC(=N)N)C(=O)N[C@H](CCCNC(=N)N)C(=O)N[C@H](CCC(C)C)C(=O)N[C@H](CCCNC(=N)N)C(=O)N[C@H](C)C(=O)N[C@H](CCCNC(=N)N)C(N)=O [Compound 19, Ac-c(C)-r-r-(D-hLeu)-r-a-r-NH2] (Ac-[dC](Cys(free,S-linked))[dR][dR][d(hLeu)][dR][dA][dR]-NH2) | 5.69 | 2.07 | no significant hemolytic effect |  |  |  | 
CC(=O)N[C@H](CSSC[C@H](N)C(=O)O)C(=O)N[C@H](CCCNC(=N)N)C(=O)N[C@H](CCCNC(=N)N)C(=O)N[C@@H](C(=O)N[C@H](CCCNC(=N)N)C(=O)N[C@H](CO)C(=O)N[C@H](CCCNC(=N)N)C(N)=O)C(C)C [Compound 29, Ac-c(C)-r-r-v-r-s-r-NH2] (Ac-[dC](Cys(free,S-linked))[dR][dR][dV][dR][dS][dR]-NH2) | 5.01 | 0.99 | no significant hemolytic effect | reduction in histamine release levels |  |  | 
CC(=O)N[C@H](CSSC[C@H](N)C(=O)O)C(=O)N[C@H](CCCNC(=N)N)C(=O)N[C@H](CCCNC(=N)N)C(=O)N[C@H](CCC(C)C)C(=O)N[C@H](CCCNC(=N)N)C(=O)N[C@H](CO)C(=O)N[C@H](CCCNC(=N)N)C(N)=O [Compound 33, Ac-c(C)-r-r-(D-hLeu)-r-s-r-NH2] (Ac-[dC](Cys(free,S-linked))[dR][dR][d(hLeu)][dR][dS][dR]-NH2) | 5.30 | 2.50 |  |  |  |  | 
CC(=O)N[C@H](CSSC[C@H](N)C(=O)O)C(=O)N[C@H](CCCNC(=N)N)C(=O)N[C@H](CCCNC(=N)N)C(=O)N[C@H](CCC(C)C)C(=O)N[C@H](CCCNC(=N)N)C(=O)NCC(=O)N[C@H](CCCNC(=N)N)C(N)=O [Compound 34, Ac-c(C)-r-r-(D-hLeu)-r-G-r-NH2] (Ac-[dC](Cys(free,S-linked))[dR][dR][d(hLeu)][dR]G[dR]-NH2) | 4.91 | 2.28 |  |  |  |  | 
CC(=O)N[C@H](CSSC[C@H](N)C(=O)O)C(=O)N[C@H](CCCNC(=N)N)C(=O)N[C@H](CCCNC(=N)N)C(=O)N[C@@H](C(=O)N[C@H](CCCNC(=N)N)C(=O)N[C@H](CO)C(=O)N[C@H](CCCNC(=N)N)C(N)=O)C1CCCCC1 [Compound 35, Ac-c(C)-r-r-(D-Chg)-r-s-r-NH2] (Ac-[dC](Cys(free,S-linked))[dR][dR][dChg][dR][dS][dR]-NH2) | 4.89 | 2.06 |  |  |  |  | 
CC(=O)N[C@H](CSSC[C@H](N)C(=O)O)C(=O)N[C@H](CCCNC(=N)N)C(=O)N[C@H](CCCNC(=N)N)C(=O)N[C@@H](C(=O)N[C@H](CCCNC(=N)N)C(=O)N[C@H](CO)C(=O)N[C@H](CCCNC(=N)N)C(N)=O)C(C)(C)C [Compound 37, Ac-c(C)-r-r-(D-Tle)-r-s-r-NH2] (Ac-[dC](Cys(free,S-linked))[dR][dR][dTle][dR][dS][dR]-NH2) | 4.81 | 2.23 |  |  |  |  | 
CC(=O)N[C@H](CSSC[C@H](N)C(=O)O)C(=O)N[C@H](C)C(=O)N[C@H](CCCNC(=N)N)C(=O)N[C@H](CCCNC(=N)N)C(=O)N[C@H](CCCNC(=N)N)C(=O)N[C@H](C)C(=O)N[C@H](CCCNC(=N)N)C(N)=O [Etelcalcetide, Ac-c(C)-a-r-r-r-a-r-NH2, reference compound] | 5.17 | 1.70 |  |  | reversible serum calcium reduction | did not increase with the period of treatment | 
octylphenoxy poly(ethyleneoxy)ethanol-100 [reference compound] |  |  |  |  |  |  | significant hemolytic effect
